Measurements as given in patent US7718677B2, “Methods and compositions for reduction of side effects of therapeutic treatments” (priority 2007, dated 2010).
Values joined by “and” are separate entries in the source; they are usually repeats but may differ in a detail not shown here. Equal values may be shown once.

Key:
[1] = system: Squirrel (Saimiri sciureus) monkeys with nigrostriatal damage; assay: Levodopa-induced dyskinesias in MPTP-lesioned monkeys, nicotine in drinking solution before levodopa (Example 1); type: in vivo; details: scale 0-4, mean ± SE
Protocol: Animals: Squirrel (Saimiri sciureus) monkeys (n=7) were purchased from World Wide Primates (Miami, Fla.). The animals weighed between 0.6-0.9 kg and were in mid to late adulthood as determined from their general appearance (dentition, fur, other). Female monkeys were used since older animals were available that may better model Parkinson's disease. The animals were placed in quarantine upon arrival, and maintained in a temperature-controlled room (27±3° C.) with a relative humidity>30%, under a 13/11-hour light/dark cycle. Monkey food chow and fruits/vegetables were provided once daily, with water provided ad libitum. The monkeys were housed in separate cages to allow for clear behavioral assessments. The animals were released from quarantine after 1 month and treatments initiated. All procedures conformed to the National Institutes of Health Guide for the Care and Use of Laboratory Animals and were approved by the Institutional Animal Care and Use Committee at the Parkinson's Institute.
(§1) 1-Methyl-4-phenyl-1,2,3,6-tetrahydropyridine (MPTP) administration: Prior to lesioning, the animals were allowed to acclimate to the colony and rated for parkinsonism as described (Langston et al. Ann Neurol. 2000; 47:S79-89). All values were within the normal range. The monkeys were then injected subcutaneously with 2.0 mg/kg MPTP (Sigma, St-Louis, Mo.) dissolved in saline. The animals were rated for parkinsonism 3-4 weeks after MPTP administration. The disability scores ranged from 0 (normal) to 28 for a severely parkinsonian animal. Animals were assessed for 1) spatial hypokinesia (reduction in use of the available cage space), 2) body bradykinesia (increased slowness in body movement), 3) left and 4) right manual dexterity, 5) balance, 6) freezing and 7) action tremor. If they were not parkinsonian, MPTP injection (1.0-2.0 mg/kg) was repeated from 2-5 times for total doses of 3.5 to 13.5 mg/kg. Despite multiple MPTP dosing, two of the animals were not stably parkinsonian.
Nicotine treatment: All monkeys (n=7) were then given a drinking solution for 3 weeks consisting of commercially available orange Gatorade® to mask nicotine's bitter taste (FIG. 1). The control group (n=4) was continued on Gatorade® only, while nicotine (free base) was added to the Gatorade of the treated group (n=3). Nicotine dosing was started at 50 μg/ml for 1 week, 150 μg/ml for 1 week, with the concentration increased by […] over the next few weeks, up to 650 μg/ml (FIG. 1).
Levodopa administration: Monkeys were administered levodopa/carbidopa (5 mg/kg and 1.25 mg/kg, respectively), prepared by crushing a tablet of Sinemet® CR 100/25 (DuPont Pharma) and dissolving it in water. This dose of levodopa is within the range of that prescribed to Parkinson's disease patients. The monkeys were gavaged twice daily at 3.5-hour intervals for 8 weeks at a time using a 5-day-on/2-day-off schedule (Hsu et al., J Pharmacol Exp Ther. 2004; 311:770-777). During levodopa treatment, the monkeys were given fruits in the morning and food pellets 3.5 hours after the afternoon levodopa dose to optimize gastrointestinal absorption.
Dyskinesias were rated from videotapes, as described (Hsu et al., J Pharmacol Exp Ther. 2004; 311:770-777). This included a one hour baseline period (no drugs) from ˜8:00-9:00 AM, followed by two 3.5-hour treatment periods with levodopa starting at ˜9:00 AM and ˜12:30 PM. Dyskinesias were rated for 2-minute periods at 30-minute intervals by two independent raters blinded to treatment. They were rated on a scale of 0 (no dyskinesias) to 4; a score of 1 was indicative of subtle dyskinesias that were not sustained; 2, mild dyskinesias that were sustained; 3, moderate dyskinesias that impaired the ability to remain stationary; 4, severe dyskinesias that were generalized and incapacitating.
Data analyses: The levodopa treatment protocol used in the present study involved a 5-day-on/2-day-off schedule.

[2] = system: MPTP-lesioned squirrel monkeys; assay: Parkinsonism rating on or off levodopa in MPTP-lesioned monkeys; type: in vivo, Saimiri sciureus; design: key to Parkinson Ratings Expt 1 / Parkinson Ratings Expt 2 (crossover): disability score 0 = normal to 28 = severely parkinsonian
Protocol: as §1
Data analyses: The levodopa treatment protocol used in the present study involved a 5-day-on/2-day-off schedule. Parkinsonian ratings were done on Monday and Friday of each week, with the score averaged over the two days. Dyskinesias ratings were determined by averaging the scores on Wednesday and Thursday of each week. All values are expressed as the mean±SE of the indicated number of animals. Results were compared using paired t-tests or analysis of variance (ANOVA) followed by Bonferroni multiple comparison post hoc test, using Prism® program (GraphPad Software, Inc, San Diego, Calif.). A level of 0.05 was considered significant.
White bars indicate no nicotine treatment and black bars indicate nicotine treatment. Parkinsonism was evaluated immediately before the afternoon L-dopa dose and 1.5 to 2 hours after L-dopa treatment, when a maximal antiparkinsonian effect is anticipated. Two of the seven animals in the study were not parkinsonian, and therefore were not included in this analysis. Error bars are the means±standard error of five animals before and after crossover of nicotine treatment. **p<0.01, as compared with the same group with no L-dopa treatment by a Mann-Withney test.

[3] = general description; cited from earlier work
[4] = on levodopa treatment, 1.5-2 hours after dosing, individual animals, scale 0-28

N[C@@H](Cc1ccc(O)c(O)c1)C(=O)O [levodopa, (−)-L-a-amino-b-(3,4-dihydroxybenzene) propanoic acid]
dyskinetic ratings 3 hours after the afternoon levodopa treatment ([1]; week 2/3 of levodopa treatment, levodopa/carbidopa 5/1.25 mg/kg twice daily): 0.5 ± 0.3
dyskinetic ratings 3 hours after the afternoon levodopa treatment ([1]; week 4 of levodopa treatment): 1.0 ± 0.4
dyskinetic ratings 3 hours after the afternoon levodopa treatment ([1]; week 6 of levodopa treatment): 1.1 ± 0.2
dyskinetic ratings 3 hours after the afternoon levodopa treatment ([1]; week 8 of levodopa treatment): 0.9 ± 0.1
parkinsonism ratings ([2]; measured 1.5-2 hours after levodopa dosing): reduced
Parkinson Ratings Expt 1 [2, 4]: 0.4 (2×) and 0.6
Parkinson Ratings Expt 2 (crossover) [2, 4]: 1.8 and 0.9
Parkinson Ratings Mean ± SE (n) ([2]; on levodopa treatment, 1.5-2 hours after dosing, n=5): 0.8 ± 0.3 (5)
solubility in water [3]: slightly soluble
